Assay results from ChEMBL document CHEMBL3352458, “Discovery of dual death-associated protein related apoptosis inducing protein kinase 1 and 2 inhibitors by a scaffold hopping approach” (J Med Chem, 2014).
pIC50, pKd: −log10 of the molar value.

How the values were obtained:
[1] = molecular target: T1, Serine/threonine-protein kinase 17B (Homo sapiens, UniProt O94768); assay: Binding affinity to DRAK2 (unknown origin) ATP site
T1 sequence (O94768 whole entry): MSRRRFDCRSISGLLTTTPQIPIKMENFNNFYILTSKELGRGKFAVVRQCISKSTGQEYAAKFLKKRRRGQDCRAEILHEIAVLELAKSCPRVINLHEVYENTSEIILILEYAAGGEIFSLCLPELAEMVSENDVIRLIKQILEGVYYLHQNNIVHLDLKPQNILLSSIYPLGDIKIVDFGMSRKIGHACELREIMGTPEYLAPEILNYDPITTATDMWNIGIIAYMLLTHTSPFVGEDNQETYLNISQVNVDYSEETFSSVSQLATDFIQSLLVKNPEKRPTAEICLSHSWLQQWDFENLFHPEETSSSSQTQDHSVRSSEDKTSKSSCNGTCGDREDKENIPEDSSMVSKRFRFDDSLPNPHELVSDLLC

[2] = molecular target: T1, Serine/threonine-protein kinase 17B; assay: Inhibition of DRAK2 (unknown origin) using 33P-ATP after 30 mins by Trilux scintillation counting
[3] = molecular target: T1, Serine/threonine-protein kinase 17B; assay: Inhibition of DRAK2 (unknown origin) using 1 uM ATP by biochemical assay
[4] = molecular target: T1, Serine/threonine-protein kinase 17B; assay: Inhibition of DRAK2 (unknown origin) using 5 uM ATP by biochemical assay
[5] = molecular target: T1, Serine/threonine-protein kinase 17B; assay: Inhibition of DRAK2 (unknown origin) using 10 uM ATP by biochemical assay
[6] = molecular target: T1, Serine/threonine-protein kinase 17B; assay: Inhibition of DRAK2 (unknown origin) using 25 uM ATP by biochemical assay
[7] = molecular target: T1, Serine/threonine-protein kinase 17B; assay: Inhibition of DRAK2 (unknown origin) using 50 uM ATP by biochemical assay
[8] = molecular target: T1, Serine/threonine-protein kinase 17B; assay: Inhibition of DRAK2 (unknown origin) using 100 uM ATP by biochemical assay
[9] = molecular target: T1, Serine/threonine-protein kinase 17B; assay: Inhibition of DRAK2 (unknown origin) using 250 uM ATP by biochemical assay
[10] = molecular target: T1, Serine/threonine-protein kinase 17B; assay: Inhibition of DRAK2 (unknown origin) using 500 uM ATP by biochemical assay

SMILES | pKd [1] | other results
COc1cc(-c2cnc3snc(NC(=O)C4CCCCC4)c3c2)ccc1O | 5.70 | 
COc1cc(-c2cnc3snc(NC(=O)C4CCCCC4)c3c2)ccc1N | 6.18 | 
Nc1cccc(-c2cnc3snc(NC(=O)C4CCCCC4)c3c2)c1 | 5.64 | 
O=C(Nc1nsc2ncc(-c3ccc(O)cc3)cc12)C1CCCCC1 | 5.49 | 
O=C(Nc1nsc2ncc(-c3cccs3)cc12)C1CCCCC1 | 5.72 | 
O=C(Nc1nsc2ncc(-c3ccsc3)cc12)C1CCCCC1 | 5.80 | 
COc1ccc(-c2cnc3snc(NC(=O)C4CCC4)c3c2)cc1OC | 5.80 | 
COc1ccc(-c2cnc3snc(NC(=O)C4CCNCC4)c3c2)cc1OC | 5.14 | 
COc1ccc(-c2ccc3scc(NC(=O)C4CCCCC4)c3c2)cc1OC | 6.29 | 

The next lines start with results.

pKd [1] | SMILES | other results
5.80 | COc1ccc(-c2cnc3snc(NC(=O)C4CCCCC4)c3c2)cc1OC | 
5.66 | COc1ccc(-c2cnc3snc(NC(=O)C4CCCC4)c3c2)cc1OC | 
6.28 | COc1ccc(-c2cnc3snc(NC(=O)C4CCCCCC4)c3c2)cc1OC | 
8.05 | COc1ccc(-c2cnc3scc(NC(=O)C4CCCCC4)c3c2)cc1OC | pIC50 [2]: 6.07; pIC50 [3]: 6.43; pIC50 [4]: 6.29; pIC50 [5]: 6.28; pIC50 [6]: 6.19; pIC50 [7]: 6.14; pIC50 [8]: 6.00; pIC50 [9]: 5.83; pIC50 [10]: 5.65
7.57 | COc1ccc(-c2cnc3scc(NC(=O)C4CCCCC4)c3n2)cc1OC | pIC50 [2]: 5.75
7.48 | COc1ccc(-c2cnc3[nH]cc(NC(=O)C4CCCCC4)c3c2)cc1OC | 
5.57 | COc1ccc(-c2ccc3snc(NC(=O)C4CCCCC4)c3c2)cc1OC | 
6.02 | COc1ccc(-c2ccc3onc(NC(=O)C4CCCCC4)c3c2)cc1OC | 
6.74 | COc1ccc(-c2cnc3ncnc(NC(=O)C4CCCCC4)c3n2)cc1OC | 
